Here are results for two compounds from article PMC8603191, “Fragment-based design of selective GPCR ligands guided by free energy simulations” (Chemical communications (Cambridge, England), 2021).

One may read the Ki as a dissociation constant, usually derived from enzyme kinetics or from competition with a known ligand.

Values joined by “and” are separate entries in the source; they are usually repeats but may differ in a detail not shown here. Equal values may be shown once. “Also recorded” adds a separate entry of the source.

Experiment [1] addresses T1, human A1AR (Homo sapiens, UniProt P30542).
T1 construct: expressed in transfected cells; host or cells: HEK293 (membrane preparations)
T1 sequence (P30542 1-326): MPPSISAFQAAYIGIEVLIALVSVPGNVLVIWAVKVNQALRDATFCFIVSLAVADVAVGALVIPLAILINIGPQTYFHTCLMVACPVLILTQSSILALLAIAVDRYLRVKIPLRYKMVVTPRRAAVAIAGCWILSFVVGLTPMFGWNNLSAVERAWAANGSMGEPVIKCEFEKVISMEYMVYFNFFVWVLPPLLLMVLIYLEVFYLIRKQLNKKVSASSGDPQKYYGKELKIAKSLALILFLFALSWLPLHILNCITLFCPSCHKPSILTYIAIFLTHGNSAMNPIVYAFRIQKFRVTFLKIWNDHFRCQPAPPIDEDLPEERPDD
The experiment in a line: Radioligand binding assay, displacement of [3H]DPCPX. Conditions: for Free energy of binding (ΔG) A1AR: calculated from experimental binding affinities; for ΔΔG Experimental A1AR: based on Table S3. As to the method:
(§1) Radioligand binding assays. HEK293 cells expressing the human A1- or A2AARs were cultured in DMEM supplemented with 10% fetal bovine serum, 100 Units/ml penicillin, 100 µg/ml streptomycin, and 2 µmol/ml glutamine. Cells were detached from plates by scraping into cold PBS and centrifuged at 250 g for 5 min. The pellets were resuspended in ice-cold Tris HCl buffer (50 mM, pH 7.4) and then homogenized. After homogenization and suspension, cells were centrifuged at 1000 g for 10 min, and the pellet was discarded.
(§2) The suspension was then re-centrifuged at 20,000 g for 60 min at 4 °C. The pellets were resuspended in buffer containing 3 Units/ml adenosine deaminase and incubated at 37°C for 30 min. The aliquots of membrane preparations were stored at −80°C until the binding experiments. For displacement binding assays, membrane preparations (20 µg proteins/tube) were incubated at 25°C for 60 min with a final concentration of [3H]DPCPX (0.5 nM) and [3H]ZM241385 (1.0 nM) for A1- and A2AARs, respectively, in a mixture containing 50 µL of increasing concentrations of a test ligand in a total assay volume of 200 µL of 50 mM Tris HCl, pH 7.4, containing 10 mM MgCl2. Nonspecific binding was determined using 100 µM of XAC. The reaction was terminated by filtration with GF/B filters using a Brandel 24-channel harvester. Filters were placed in scintillation vials containing 5 ml of Hydrofluor scintillation buffer and counted using a PerkinElmer Tricarb 2810TR liquid scintillation counter. […]
(§3) Table S1. Binding affinities of compounds 1-10 based on displacement of [3H]DPCPX and [3H]ZM241385 at the A1AR and A2AAR, respectively.
(§4) Compound Substituent A1AR A2AAR index […]
(§5) a Ki values are expressed as means ± SEM from (2-4) independent experiments. b Free energy of binding (ΔG) calculated from experimental binding affinities (kcal/mol) / Number of heavy atoms (HA). The ligand efficiency (LE) = −ΔG/HA. c Values from Matricon et al.8
(§6) Table S3. Binding affinities of compounds 11-26 based on displacement of [3H]DPCPX and […]
(§7) a K values are expressed as means ± SEM from (2-4) independent experiments.
(§8) Free energy of binding (ΔG) calculated from experimental binding affinities (kcal/mol) / Number of heavy

Experiment [2] relates to human A1AR. The experiment is described as above. The conditions noted are these: A1AR versus A2AAR; for A1AR selectivity index: from Ki values. On the procedure: as §1, §2, §3, §4, §5, §6, §7, §8
Experiment [3] has as its target T2, human A2AAR (Homo sapiens, UniProt P29274).
T2 construct: expressed in transfected cells; host or cells: HEK293 (membrane preparations)
The experiment in a line: Radioligand binding assay, displacement of [3H]ZM241385. The conditions noted are these: for Free energy of binding (ΔG) A2AAR: calculated from experimental binding affinities; for ΔΔG Experimental A2AAR: based on Table S3. On the procedure:
as §1, §2, §3, §4, §5, §6, §7, §8

Experiment [4] has as its target T1, human A1AR. Put plainly: cAMP functional assay. The format is cell-based. Conditions: HEK293 cells, intracellular cAMP, n=3. On the procedure: (§9) Functional assays measuring intracellular concentrations of cAMP were performed at the human A1AR and A2AAR to determine the efficacy of compounds 22 and 26. […]
cAMP assay. HEK293 cells were grown in DMEM supplemented with 10% fetal bovine serum, 100 Units/ml penicillin, 100 µg/ml streptomycin, and 2 µmol/ml glutamine. After 24 hours, cells were treated with assay buffer containing rolipram (10 µM), PSB603 (1 µM) and adenosine deaminase (3 units/ml) for 30 min followed by the addition of antagonists for 20 min and subsequent addition of agonists and incubated for another 20 min. For the A1AR assay, after incubation with agonist for 20 min, forskolin (10 µM) was added and incubated for an additional 15 min. The reaction was terminated upon removal of the supernatant, and addition of 100 µl Tween-20 (0.3%). Intracellular cAMP levels […]
(§10) were measured with an ALPHAScreen cAMP assay kit following the instructions from the manufacturer (PerkinElmer).

Experiment [5] has as its target T2, human A2AAR. Put plainly: cAMP functional assay. The format is cell-based. The conditions noted are these: HEK293 cells, intracellular cAMP, n=3. On the procedure:
as §9
cAMP assay. HEK293 cells were grown in DMEM supplemented with 10% fetal bovine serum, 100 Units/ml penicillin, 100 µg/ml streptomycin, and 2 µmol/ml glutamine. After 24 hours, cells were treated with assay buffer containing rolipram (10 µM), PSB603 (1 […]
The reaction was terminated upon removal of the supernatant, and addition of 100 µl Tween-20 (0.3%). Intracellular cAMP levels […]
as §10

T2 sequence (P29274 whole entry): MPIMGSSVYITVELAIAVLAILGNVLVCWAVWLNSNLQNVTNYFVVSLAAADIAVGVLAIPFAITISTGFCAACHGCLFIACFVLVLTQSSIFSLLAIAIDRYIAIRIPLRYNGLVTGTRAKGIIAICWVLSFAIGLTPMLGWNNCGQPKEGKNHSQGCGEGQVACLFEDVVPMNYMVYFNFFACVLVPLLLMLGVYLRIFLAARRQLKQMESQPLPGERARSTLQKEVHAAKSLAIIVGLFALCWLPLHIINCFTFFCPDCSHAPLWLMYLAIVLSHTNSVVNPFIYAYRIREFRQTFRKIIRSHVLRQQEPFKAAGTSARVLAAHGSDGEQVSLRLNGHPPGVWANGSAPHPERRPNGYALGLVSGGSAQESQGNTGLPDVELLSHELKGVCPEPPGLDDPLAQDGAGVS

With `CC1(C(=O)Nc2nc3cc(Br)ccc3s2)CCCC1` [Compound 22], the “Free energy of binding (ΔG) A1AR” value in experiment [1] was -11.0 kcal/mol. In addition, the “improvement of A1AR affinity” value in experiment [1] (compared to compound 1) is given as over 1000 fold. In addition, the inhibitory constant (Ki) in experiment [1] (radioligand binding, Fig. 1, Table S5) was 10 nM; in experiment [3] (displacement of [3H]ZM241385, means ± SEM from 2-4 independent experiments), 384 ± 82 nM. Also, the “ΔΔG Experimental A1AR” value in experiment [1] (reference compound 9) was “–2.4 ± 0.1 kcal/mol”. This compound displayed an A1AR selectivity index in experiment [2] of 38.4. In experiment [2] (Fig. 1), the “selectivity for the A1AR” value stood at 38 fold. In addition, the “Free energy of binding (ΔG) A2AAR” value in experiment [3] was -8.8 kcal/mol. Moreover, in experiment [3] (reference compound 9), the “ΔΔG Experimental A2AAR” value is recorded as “–0.8 ± 0.1 kcal/mol”. The “efficacy in cAMP assay at A1AR” value in experiment [4] was “antagonists; also recorded: Antagonism”. For the same compound, the “efficacy in cAMP assay at A2AAR” value in experiment [5] is given as “antagonists; also recorded: Antagonism”.
Regarding `COc1cccc2sc(NC(=O)c3ccccc3)nc12` [Compound 26], the “Free energy of binding (ΔG) A1AR” value in experiment [1] is -8.1 kcal/mol. Besides, the inhibitory constant (Ki) in experiment [1] (displacement of [3H]DPCPX, means ± SEM from 2-4 independent experiments) is 1330 nM and 1300 nM; in experiment [3] (radioligand binding, Table S5), 106 nM. In experiment [1] (reference compound 10), the “ΔΔG Experimental A1AR” value is 0.4 ± 0.3 kcal/mol. This compound also registered an A1AR selectivity index in experiment [2] of 0.1. This compound also gave an A2AAR selectivity in experiment [3] (A2AAR versus A1AR) of 13 fold. Besides, the “Free energy of binding (ΔG) A2AAR” value in experiment [3] was -9.6 kcal/mol. In addition, the “ΔΔG Experimental A2AAR” value in experiment [3] (reference compound 10) is listed as “–0.8 ± 0.1 kcal/mol”. In addition, the “efficacy in cAMP assay at A1AR” value in experiment [4] is listed as “antagonists; also recorded: Antagonism”. Moreover, the “efficacy in cAMP assay at A2AAR” value in experiment [5] is listed as “antagonists; also recorded: Antagonism”.
